Test results: patent US20050186237A1, “Bird repellent” (priority 2002, published 2005)
Marks after values point to notes of the source that are not given here.

Experiments:
brushtail possums = details: Day et al, 2000; cited from earlier work
wild rats = assay: Palatability of treated baits at rat-specific bait stations; type: in vivo, Rattus spp.
Protocol: (§1) To determine the palatability of baits to wild possums and wild rats, possum-specific bait stations and rat-specific bait stations were established in bush-pasture margin and forest habitats (see FIG. 1 and FIG. 2).
The rat-specific bait station (FIG. 2) is an approximately 60 mm diameter tube 6 with bait 2 placed in the centre and tube 6 is pinned to ground with holding stake 4. Plasticine 5 is added at either end of the tube 6 to record animal activity.
(§2) The bait stations (FIGS. 1 and 2) enable determination of the response of possums or rats to bait 2. Plasticine 5 is used to record the presence (e.g. footprints, claw marks, bite marks) and species of animal present at the bait station.
(§3) In this example the repellence of neem (a known repellent), lime (a known repellent), anthraquinone and d-pulegone (compounds of the present invention) in cereal, carrot and paste baits are tested on wild possums and rats.
(§4) The following bait treatments are compared: • standard (solution of dye+water+0.1% cinnamon oil) • cinnamamide (solution of dye+water+0.5% cinnamamide) • neem (solution of dye+water+2% neem oil) • lime (solution of dye+water+2% agricultural lime) • anthraquinone (solution of dye+water+0.75% anthraquinone formulation). • d-pulegone (solution of dye+water+1% d-pulegone) • salt (solution of dye+water+salt (10% of total bait weight))
(§5) Treatments are applied to the cereal and carrot bait surface at a rate of 10% of total bait weight. The treatments are applied to the paste bait by mixing the solution through the bait, again at a rate of 10% of total bait weight.
(§6) The treatments are placed on the bait stations as described above and possum and rat activity measured.
(§7) The following bait treatments were compared (only carrot baits are compared): • standard (solution of dye+water+0.1% cinnamon oil) • anthraquinone 1 (solution of dye+water+1% anthraquinone formulation) • anthraquinone 2 (solution of dye+water+2% anthraquinone formulation) • d-pulegone 1 (solution of dye+water+1% d-pulegone) • d-pulegone 2 (solution of dye+water+2% d-pulegone) • combination 1 (solution of dye+water+1% anthraquinone formulation+1% d-pulegone) • combination 2 (solution of dye+water+2% anthraquinone formulation+2% d-pulegone) • salt (solution of dye+water+salt (10% of total bait weight))
(§8) All quantities given in percent by weight and all bait treatment, bait station set-up and subsequent measurement are as described in Example 1.

house sparrows = assay: Sparrow treated wheat choice test, 4-day periods (Example 8, Experiment 1); type: in vivo, Passer domesticus; details: mean daily percentage of wheat eaten over 4-day test periods; choice with plain wheat
Protocol: The feeding behavior of free-ranging house sparrows (Passer domesticus) presented wheat treated with anthraquinone paired with either a novel visual cue (blue dye), cinnamon oil (containing primarily olfactory cues), or d-pulegone (containing olfactory and taste cues), was recorded, to determine the suitability of repellent combinations for preventing non-target birds from consuming pesticides or other harmful substances.
Eight independent populations of house sparrows, were trained to eat plain hulled wheat from four identical food trays on feed tables.
In Experiment 1, sparrows were presented, for 4-day periods, with a choice between plain wheat, anthraquinone treated wheat, and two of the remaining repellent combinations (anthraquinone and cinnamon oil, anthraquinone and blue dye, anthraquinone and d-pulegone (at 0.5% wt or 2.0% wt concentrations)) until all sparrow populations had been exposed to each repellent.
The consumption of plain wheat and anthraquinone treated wheat was compared to the consumption of the repellent combinations every 24 hr.

wild sparrows = assay: Sparrow feed table dose response and combination test on treated wheat (Example 7); type: in vivo; details: FIGS. 6-8; result in words
Text: Wild sparrow tests were used to determine the effect of the individual repellency compared with the combination repellency.
On sparrow feed tables, sparrows were offered a choice between control wheat and three doses of repellent treated wheat.

wild possums = assay: Palatability of treated baits at possum-specific bait stations; type: in vivo, Trichosurus vulpecula
Text: as §1
The possum-specific bait station (FIG. 1) is mounted on an elevated wire stake 4 with bait 2 attached in a perforated bag 1 at top of wire 4. A plastic disc 3 is used to stop rodents (not shown) climbing wire 4 has plasticine (not shown) on it to record animal activity.
as §2, §3, §4, §5, §6, §7, §8

rats = details: Day et al, 2000; cited from earlier work
several bird species = details: 1% w/w concentration; including European starlings and northern bobwhites; cited from earlier work
[1] = Example 1, by bait treatment, first exposure
[2] = Example 1, by bait treatment, subsequent exposures
[3] = Example 1, by bait treatment (cereal, carrot, paste baits), first exposure
[4] = Example 2, carrot baits, first exposure
[5] = Example 2, carrot baits, subsequent exposures

Row | Compound | Acceptance of treated baits by possums (brushtail possums) | Proportion of bait stations eaten when encountered (wild rats; [1]) | Proportion of bait stations left untouched (wild rats; [1]) | Proportion of bait stations eaten when encountered (wild rats; [2]) | Proportion of bait stations left untouched (wild rats; [2]) | Amount of wheat eaten by sparrows relative to control wheat or single repellents (wild sparrows) | Proportion of bait stations left untouched (wild possums; [3]) | Proportion of bait stations with bait eaten when encountered (wild possums; [1]) | Proportion of bait stations left untouched (wild possums; [2]) | Proportion of bait stations with bait eaten when encountered (wild possums; [2]) | Acceptance of treated baits by rats / wild rodents (rats) | other results
1 | O=C1c2ccccc2C(=O)c2ccccc21 [Anthraquinone] | readily eaten by possums | 1.00 | 0.64 | 0.65 | 0.57 | reduced the amount of wheat eaten by sparrows on days 3 and 4 | 0.67 | 0.80 | 0.35 | 1.00 | readily take anthraquinone treated baits from bait stations | Wheat consumption, percentage of that offered (house sparrows): 54%
2 | NC(=O)C=Cc1ccccc1 [Cinnamamide, cinnamamide] |  | 0.67 | 0.77 | 0.70 | 0.66 |  | 0.55 | 0.71 | 0.29 | 0.95 |  | 
3 | CC(C)=C1CC[C@@H](C)CC1=O [d-pulegone, d-Pulegone] | readily take carrot baits | 0.70 | 0.63 | 0.75 | 0.55 | reduced the quantity of wheat eaten by sparrows on days 1, 3 and 4 | 0.52 | 0.87 | 0.30 | 0.98 | readily take carrot baits | Repellence of birds (several bird species): repel several bird species
4 | Salt |  | 0.00 | 0.86 | 0.16 | 0.72 |  | 0.37 | 0.30 | 0.29 | 0.38 |  | Proportion of bait stations eaten when encountered (wild rats; [4]): 0.22; Proportion of bait stations left untouched (wild rats; [4]): 0.18; Proportion of bait stations eaten when encountered (wild rats; [5]): 0.33*; Proportion of bait stations left untouched (wild rats; [5]): 0.50; Proportion of bait stations eaten when encountered (wild possums; [4]): 1.00; Proportion of bait stations left untouched (wild possums; [4]): 0.82; Proportion of bait stations eaten when encountered (wild possums; [5]): 0.43*; Proportion of bait stations left untouched (wild possums; [5]): 0.30*
